We go through three molecules from US10918657B2 (priority 2013, dated 2021).

Assay [1] relates to giant reticulospinal (RS) neurons. Also on record: species or system Petromyzon marinus. Particulars: in vivo.
Assay [2] has the same test system. Further details: species or system Petromyzon marinus. The conditions noted are these: in vivo. This is another data set of the same source.
For assay [3], the system named is lamprey γ-synuclein. It counts as biochemical, Petromyzon marinus. The conditions noted are these: 100 pM synuclein, varying CLR01 concentrations. As to the method: After purification of GST-tagged lamprey γ-synuclein, GST was cleaved off using thrombin (10 U/mg protein; GE Healthcare). Untagged γ-synuclein was then separated from GST and thrombin using Glutathione Sepharose 4B beads and p-aminobenzamidine agarose ([…]/50 U thrombin; Sigma A7155), respectively, and dialyzed into 0.1M PBS, pH 7.4. Aggregation of the purified lamprey γ-synuclein was analyzed using the thioflavin T (ThT) fluorescence assay and electron microscopy as described previously (Roychaudhuri et al. (2014) J. Mol. Biol. 426: 2422-2441), except that 100 pM synuclein and varying CLR01 concentrations were used.

The subject of assay [4] is α-synuclein neurotoxicity. The conditions noted are these: in vivo; cited from earlier work.
The target in assay [5] is α-synuclein (Homo sapiens, UniProt P37840). Particulars: cited from earlier work.
Assay [6] has as its system Aβ and hyperphosphorylated tau. Particulars: mouse, in vivo; cited from earlier work.

As to “5′-CGC cTg CAT TgC TCT TTg TTT cTC T-3′ [MM MO]”, in assay [1], the “synuclein immunofluorescence intensity in good survivors” value was determined as 26.0±2.4 AU and the “synuclein immunofluorescence intensity in poor survivors” value is 40.7±3.7 AU. Moreover, the “survival of the giant RS neurons at the population level (Nissl (+))” value in assay [2] came to 60.0±8.0.
Taken in the same sequence, the figures for 5′-[…]-3′ [Con MO] were 25.7±1.9 AU, 42.6±3.5 AU and 56.7±5.7.
`O=P(O)(O)Oc1c2c(c(OP(=O)(O)O)c3c1[C@H]1C[C@@H]3c3cc4c(cc31)[C@H]1C[C@@H]4c3ccccc31)[C@H]1C[C@@H]2c2cc3c(cc21)[C@H]1C[C@@H]3c2ccccc21` [CLR01]: in assay [1], the “synuclein immunofluorescence intensity in "good survivors"” value was 5.6±1.3 AU and the “synuclein immunofluorescence intensity in "poor survivors"” value is 25.7±3.1 AU. The “inhibition of lamprey γ-synuclein aggregation (ThT fluorescence)” value in assay [3] was “inhibited by CLR01 in a dose-dependent manner”. Moreover, the “effect on neurodegeneration and survival in zebrafish model” value in assay [4] is “reduces neurodegeneration and improves survival”. For the same molecule, in assay [5], the “effect on α-synuclein clearance in vitro” value is given as “facilitates α-synuclein clearance in vitro”; the “effect on α-synuclein self-assembly and toxicity in vitro” value is “inhibits a-synuclein self-assembly and toxicity in vitro”. In assay [2], the “increase in neuronal survival across the entire RS neuron population” value came to 22% and the “increase of percentage of Nissl (+) "poor survivors"” value was “more than 4 fold”. Further, the “effect on accumulation of Aβ and hyperphosphorylated tau” value in assay [6] is “reduce accumulation of Aβ and hyperphosphorylated tau”.
